We go through one compound from patent EP0567205A1, “Use of opiate antagonists in the manufacture of agents for the diagnosis and therapy of hypothalamic function disorders” (Ferring Arzneimittel GmbH, priority 1986, dated 1988).

“Also recorded” adds a separate entry of the source.

The conditions of series [1]: general statement on the known drug; oral administration possible; cited from earlier work.
In series [2] the test system is Patientinnen, die an hypothalamischer Amenorrhoe litten. In words: Naltrexon administration to patients with hypothalamic amenorrhea (serial blood sampling for LH, FSH, prolactin and ovarian steroids; ultrasound). It is filed as in vivo. An excerpt: Im Rahmen der vorliegenden Erfindung wurden Untersuchungen an Patientinnen mit hypothalamischer Amenorrhoe durchgeführt. Diese Untersuchungen haben überraschenderweise gezeigt, daß durch die Gabe des Opiat-Antagonisten Naltrexon eine Zunahme von Frequenz und Amplitude der LH und FSH Sekretion erreicht wird. Es kann daher davon ausgegangen werden, daß die endogene GnRH Sekretion durch den Opiat-Antagonisten vermehrt wird.
Die basale Gonadotropin Sekretion von Patientinnen, die an hypothalamischer Amenorrhoe litten, wurde durch Bestimmung von LH und FSH, Prolactin und Ovarien-Steroiden in ßlutproben bewertet, die alle zehn Minuten während 24 Stunden entnommen wurden. Naltrexon wurde dann in einer Dosis von 50 mg pro Tag während 24 oder 28 Tagen verabreicht. 5 Tage und 14 Tage nach dem Beginn der Naltrexonverabreichung wurden wiederholte Blutproben entnommen. An den übrigen Tagen wurden täglich Blutproben entnommen und es wurde eine Ultraschalluntersuchung nach der Naltrexonverabreichung sowie einige Tage danach durchgeführt. Es wurden folgende Ergebnisse ermittelt:
Auf die Verabreichung von Naltrexon folgte eine Zunahme der Frequenz und der Amplitude der pulsatielen Gonadotropin Sekretion sowie eine Zunahme der mittleren LH und FSH Serumkonzentration sowie der Entwicklung der Gonaden-Steroid Sekretion und der Follikel, was durch Ultraschall festgestellt wurde.

Where [3] appears, read: hypothalamic amenorrhea, 50 mg pro Tag während 24 oder 28 Tagen.
Setting [4] is: patients with hypothalamic amenorrhea, summary statement.

Regarding `O=C1CC[C@@]2(O)[C@H]3Cc4ccc(O)c5c4[C@@]2(CCN3CC2CC2)C1O5` (stereo partly drawn) [Naltrexon, 17-(Cyclopropylmethyl)-4,5-epoxy-3,14-dihydroxymorphinan-6-on], in series [1], the “Verweildauer im Plasma” value is “lange”. Besides, the “Entwicklung der Follikel” value in series [2] (by ultrasound, hypothalamic amenorrhea, 50 mg pro Tag während 24 oder 28 Tagen) was “Zunahme”. In series [2] (setting [3]), the “Amplitude der pulsatielen Gonadotropin Sekretion” value is given as “Zunahme”, the “Entwicklung der Gonaden-Steroid Sekretion” value was “Zunahme”, the “Frequenz der pulsatielen Gonadotropin Sekretion” value is “Zunahme” and the “mittlere FSH Serumkonzentration” value is “Zunahme”. Also, the “mittlere LH Serumkonzentration” value in series [2] (setting [3]) was “Zunahme”. For the same compound, in series [2] (patients who menstruated after withdrawal, hypothalamic amenorrhea, 50 mg pro Tag während 24 oder 28 Tagen), the “Menstruation nach Absetzen des Mittels” value was “Sämtliche Patientinnen menstruierten”. Moreover, the Ovulation entry in series [2] (patients who ovulated, hypothalamic amenorrhea, 50 mg pro Tag während 24 oder 28 Tagen) is given as “führte zur Normalisierung der Gonadotropin-Sekretion, zur Ovulation; also recorded: Eine von 3 Patientinnen ovulierte”. In addition, in series [2] (setting [4]), the “Bildung eines Corpus luteum” value is “zur Bildung eines Corpus luteum”, the Gonadotropin-Sekretion result is reported as “Normalisierung” and the “menstrueller Zyklus” value is on record as “Normalisierung”.
